# Test results reported in patent publication US20240360194A1, “New Peptides as Potent and Selective GIP Receptor Agonists” (Sanofi, priority 2021, published 2024).
# Numbered stars: 1 amine (or outer) side, 2 acyl side, 3 side chain; on linkers, the order of the positions; unused ones are H or OH. Square brackets hold non-standard residues; d marks the D form. Side chains are listed from the residue outwards. Peptide text beside a SMILES is read from it. * marks the point of attachment. C18 diacid = O=C(O)CCCCCCCCCCCCCCCCC(=O)*; γGlu = O=C(O)[C@H](CCC(=O)[*:2])N[*:1]; AEEA = NCCOCCOCC(=O)O; Aib = CC(C)(N)C(=O)O
# How the values were obtained:
# [1] = ThT assay for the assessment of physical stability (fibrillation); type: physicochemical; details: ThT buffer system A: 100 mM phosphate buffer pH 7.4; 3 mg/ml, 37° C., shaking
# From the text: Low physical stability of a peptide solution may lead to amyloid fibril formation, which is observed as well-ordered, thread-like macromolecular structures in the sample, which eventually may lead to gel formation. Thioflavin T (ThT) is widely used to visualize and quantify the presence of misfolded protein aggregates [Biancalana et al., Biochim. Biophys. Acta 2010, 1804(7), 1405]. […] Enzymol. 1999, 309, 274]. The time course for fibril formation often follows the characteristic shape of a sigmoidal curve and can be separated into three regions: a lag phase, a fast growth phase, and a plateau phase. The typical fibril formation process starts with the lag phase in which the amount of partially folded peptide turned into fibrils is not significant enough to be detected. The lag-time corresponds to the time the critical mass of the nucleus is built. Afterwards, a drastic elongation phase follows, and fibril concentration increases rapidly. Investigations were carried out to determine fibrillation tendencies under stress conditions by shaking at 37° C. within Fluoroskan Ascent FL or Fluoroskan Ascent. For the tests in Fluoroskan Ascent (FL), 200 μl sample were placed into a 96-well mictrotiter plate PS, flat bottom, Greiner Fluotrac No. 655076. Plates were sealed with Scotch Tape (Qiagen). Samples were stressed by continuous cycles of 10 sec shaking at 960 rpm and 50 sec rest period at 37° C. The kinetic was monitored by measuring fluorescence intensity every 20 min. Peptides were diluted in a buffer system to a final concentration of 3 mg/ml. 20 μl of a 10.1 mM ThT solution in H2O were added to 2 ml of peptide solution to receive a final concentration of 100 μM ThT. For each sample eight replicates were tested. • ThT buffer system A) 100 mM phosphate buffer pH 7.4 • ThT buffer system B) 100 mM phosphate buffer pH 7.4, 2.7 mg/ml m-cresol Lag time in hours (h) in Thioflavin T (ThT) assay of peptide samples was determined in ThT buffer system A as described in Methods.
# [2] = Chemical stability assessment (UHPLC-UV purity loss on storage in solution); type: physicochemical; details: Chemical stability buffer system A: 20 mM phosphate buffer pH 7.4; ~300 μM
# Experimental: Purity of a peptide batch was determined through UHPLC/MS prior to chemical stability measurement. The target concentration was 300 μM pure compound. Solutions from solid samples were prepared in the following buffer systems with a concentration of ˜300 μM compound based on the previously determined % purity: • Chemical stability buffer system A) 20 mM phosphate buffer pH 7.4, • Chemical stability buffer system B) 8 mM phosphate buffer pH 7.4, 14 mg/ml propylene glycol, 5.5 mg/ml phenol • Chemical stability buffer system C) 100 mM phosphate buffer pH 7.4, 2.7 mg/ml m-cresol
# Prepared solutions were filtered through […] pore size and filled into sterilized glass containers under laminar flow conditions.
# Glass containers were stored for 28 days at 5 and 40° C. After this time, the samples were centrifuged for 15 min at 2500 RCF. Then 1.5 μl of the undiluted supernatant were analysed with UHPLC-UV.
# The chemical stability was rated through the relative loss of purity calculated by the equation: […]
# The purity is calculated as
# The analytical methods used were Analytical UHPLC Method B or C.
# Peptide samples were prepared in Chemical stability buffer system A or B and stability was assessed as described in Methods.
# [3] = Solubility assessment (UHPLC-UV of supernatant, target 10 mg/ml); type: physicochemical
# Outline: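 Peptides at 10 mg/ml (purity-corrected) in 100 mM phosphate pH 7.4, optionally with 2.7 mg/ml m-cresol; gentle agitation 1 h, then 5° C. overnight (24 h). Supernatant after 15 min centrifugation at 2500 RCF quantified by UHPLC-UV, with sequence-based extinction coefficients.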
# [4] = target: human GLP-1 receptor (hGLP-1R) (Homo sapiens, UniProt P43220); assay: Binding assay, displacement of [125I]GLP-1 from HEK-293 membranes over-expressing GLP-1R (SPA); details: [125I]GLP-1 displacement
# Sequence of human GLP-1 receptor (hGLP-1R) (P43220 24-463): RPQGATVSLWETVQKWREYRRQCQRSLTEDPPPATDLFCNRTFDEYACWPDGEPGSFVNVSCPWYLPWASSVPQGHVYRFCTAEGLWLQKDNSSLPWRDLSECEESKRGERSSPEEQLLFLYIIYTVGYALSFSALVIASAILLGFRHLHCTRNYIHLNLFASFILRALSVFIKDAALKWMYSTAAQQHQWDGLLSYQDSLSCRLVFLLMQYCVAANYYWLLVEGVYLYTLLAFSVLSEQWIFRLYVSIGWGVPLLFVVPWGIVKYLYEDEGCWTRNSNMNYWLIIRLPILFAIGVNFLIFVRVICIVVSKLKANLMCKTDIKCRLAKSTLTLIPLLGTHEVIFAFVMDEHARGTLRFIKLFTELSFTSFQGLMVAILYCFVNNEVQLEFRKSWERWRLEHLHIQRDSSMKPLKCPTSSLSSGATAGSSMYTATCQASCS
# Outline: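 Membranes from HEK-293 cells over-expressing human GIPR or GLP-1R, isolated by homogenising, sonicating and ultracentrifuging at 100000×g into HEPES/EDTA/NaCl buffer with protease inhibitors, were used for binding.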
# [5] = target: T1, human GIP receptor (hGIPR) (Homo sapiens, UniProt P48546); assay: In vitro cellular cAMP assay for GIP receptor efficacy (HEK-293 cell line over-expressing receptor); type: cell-based; details: EC50 hGIPR 0.1% BSA, HEK-293, 0.1% BSA
# T1 sequence (P48546 22-466): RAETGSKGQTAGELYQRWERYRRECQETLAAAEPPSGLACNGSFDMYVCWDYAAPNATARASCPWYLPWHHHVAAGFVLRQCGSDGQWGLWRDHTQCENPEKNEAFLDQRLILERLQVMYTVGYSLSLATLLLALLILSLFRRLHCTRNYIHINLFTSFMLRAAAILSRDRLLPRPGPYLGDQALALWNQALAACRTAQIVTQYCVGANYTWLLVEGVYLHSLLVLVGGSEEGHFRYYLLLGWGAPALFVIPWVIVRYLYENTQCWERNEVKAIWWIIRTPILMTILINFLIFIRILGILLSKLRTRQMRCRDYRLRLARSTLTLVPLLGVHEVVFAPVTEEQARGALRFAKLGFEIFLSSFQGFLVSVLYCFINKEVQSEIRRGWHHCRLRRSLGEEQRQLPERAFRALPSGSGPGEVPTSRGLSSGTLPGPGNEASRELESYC
Compound,Increase in FI [1],Lag time before increase [1],Relative purity loss over 28 days at 40° C. [2],"solubility at 24 h ([3]; pH 7.4, Soluble amount)","solubility ([3]; pH 7.4, Soluble amount)",IC50 [4],EC50 [5],"Soluble amount ([3]; 24 h, pH 7.4)"
"CC[C@H](C)[C@H](NC(=O)[C@H](CCCNC(=N)N)NC(=O)[C@H](CC(=O)O)NC(=O)[C@H](CC(C)C)NC(=O)C(C)(C)NC(=O)[C@@H](NC(=O)[C@H](CO)NC(=O)[C@H](CC(C)C)NC(=O)[C@H](CC(=O)O)NC(=O)[C@H](CO)NC(=O)[C@@H](NC(=O)[C@H](Cc1ccccc1)NC(=O)[C@@H](NC(=O)CNC(=O)[C@H](CCC(=O)O)NC(=O)C(C)(C)NC(=O)[C@@H](N)Cc1ccc(O)cc1)[C@@H](C)O)[C@@H](C)CC)[C@@H](C)CC)C(=O)N[C@@H](CCCCNC(=O)COCCOCCNC(=O)COCCOCCNC(=O)CC[C@H](NC(=O)CCCCCCCCCCCCCCCCC(=O)O)C(=O)O)C(=O)N[C@@H](CCC(N)=O)C(=O)NC(C)(C)C(=O)N[C@@H](CCC(=O)O)C(=O)N[C@@H](Cc1ccccc1)C(=O)N[C@H](C(=O)N[C@@H](CCC(=O)O)C(=O)N[C@@H](Cc1c[nH]c2ccccc12)C(=O)N[C@@H](CC(C)C)C(=O)N[C@@H](CC(C)C)C(=O)N[C@@H](C)C(=O)N[C@@H](CCC(N)=O)C(=O)NCC(=O)N1CCC[C@H]1C(=O)N[C@@H](CO)C(=O)N[C@@H](CO)C(=O)NCC(=O)N[C@@H](C)C(=O)N1CCC[C@H]1C(=O)N1CCC[C@H]1C(=O)N1CCC[C@H]1C(=O)N[C@@H](CO)C(N)=O)[C@@H](C)CC [SEQ ID NO: 37, H2N-Y-Aib-E-G-T-F-I-S-D-L-S-I-Aib-L-D-R-I-K[{AEEA}2-gGlu-C18OH]-Q-Aib-E-F-I-E-W-L-L-A-Q-G-P-S-S-G-A-P-P-P-S-NH2] (H-Y[Aib]EGTFISDLSI[Aib]LDRIK([AEEA-AEEA-γGlu-C18 diacid])Q[Aib]EFIEWLLAQGPSSGAPPPS-NH2)",no,>45 h,5.3%,8600 µg/mL,,,,
"CC[C@H](C)[C@H](NC(=O)[C@H](CCCNC(=N)N)NC(=O)[C@H](CC(=O)O)NC(=O)[C@H](CCCCNC(=O)COCCOCCNC(=O)COCCOCCNC(=O)CC[C@H](NC(=O)CCCCCCCCCCCCCCCCC(=O)O)C(=O)O)NC(=O)C(C)(C)NC(=O)[C@@H](NC(=O)[C@H](CO)NC(=O)[C@H](CC(C)C)NC(=O)[C@H](CC(=O)O)NC(=O)[C@H](CO)NC(=O)[C@@H](NC(=O)[C@@](C)(CC)NC(=O)[C@@H](NC(=O)CNC(=O)[C@H](CCC(=O)O)NC(=O)C(C)(C)NC(=O)[C@@H](N)Cc1ccc(O)cc1)[C@@H](C)O)[C@@H](C)CC)[C@@H](C)CC)C(=O)N[C@@H](Cc1c[nH]cn1)C(=O)N[C@@H](CCC(N)=O)C(=O)NC(C)(C)C(=O)N[C@@H](CCC(=O)O)C(=O)N[C@@H](Cc1ccccc1)C(=O)N[C@H](C(=O)N[C@@H](CCC(=O)O)C(=O)N[C@@H](Cc1c[nH]c2ccccc12)C(=O)N[C@@H](CC(C)C)C(=O)N[C@@H](CC(C)C)C(=O)N[C@@H](C)C(=O)N[C@@H](CCC(N)=O)C(=O)N[C@@H](CCCNC(=N)N)C(=O)NCC(N)=O)[C@@H](C)CC [SEQ ID NO: 16, H2N-Y-Aib-E-G-T-Iva-I-S-D-L-S-I-Aib-K[{AEEA}2-gGlu-C18OH]-D-R-I-H-Q-Aib-E-F-I-E-W-L-L-A-Q-R-G-NH2]",no,>45 h,,,5400 µg/mL,174 nM,0.0243 nM,
"CC[C@H](C)[C@H](NC(=O)[C@H](Cc1ccccc1)NC(=O)[C@H](CCC(=O)O)NC(=O)C(C)(C)NC(=O)[C@H](CCC(N)=O)NC(=O)[C@H](Cc1c[nH]cn1)NC(=O)C(C)(C)NC(=O)[C@H](CCCNC(=N)N)NC(=O)[C@H](CC(=O)O)NC(=O)[C@H](CCCCNC(=O)COCCOCCNC(=O)COCCOCCNC(=O)CC[C@H](NC(=O)CCCCCCCCCCCCCCCCC(=O)O)C(=O)O)NC(=O)C(C)(C)NC(=O)[C@@H](NC(=O)[C@H](CO)NC(=O)[C@H](CC(C)C)NC(=O)[C@H](CC(=O)O)NC(=O)[C@H](CO)NC(=O)[C@@H](NC(=O)[C@H](Cc1ccccc1)NC(=O)[C@@H](NC(=O)CNC(=O)[C@H](CCC(=O)O)NC(=O)C(C)(C)NC(=O)[C@@H](N)Cc1ccc(O)cc1)[C@@H](C)O)[C@@H](C)CC)[C@@H](C)CC)C(=O)N[C@@H](CCC(=O)O)C(=O)N[C@@H](Cc1c[nH]c2ccccc12)C(=O)N[C@@H](CC(C)C)C(=O)N[C@@H](CC(C)C)C(=O)N[C@@H](C)C(=O)N[C@@H](CCC(N)=O)C(=O)N[C@@H](CCCNC(=N)N)C(=O)N1CCC[C@H]1C(=O)N[C@@H](CO)C(=O)N[C@@H](CO)C(=O)NCC(=O)N[C@@H](C)C(=O)N1CCC[C@H]1C(=O)N1CCC[C@H]1C(=O)N1CCC[C@H]1C(=O)N[C@@H](CO)C(N)=O [SEQ ID NO: 22, H2N-Y-Aib-E-G-T-F-I-S-D-L-S-I-Aib-K[{AEEA}2-gGlu-C18OH]-D-R-Aib-H-Q-Aib-E-F-I-E-W-L-L-A-Q-R-P-S-S-G-A-P-P-P-S-NH2] (H-Y[Aib]EGTFISDLSI[Aib]K([AEEA-AEEA-γGlu-C18 diacid])DR[Aib]HQ[Aib]EFIEWLLAQRPSSGAPPPS-NH2)",no,>45 h,6.1%,,,,,
"CC[C@H](C)[C@H](NC(=O)[C@H](CCCNC(=N)N)NC(=O)[C@H](CCC(=O)O)NC(=O)[C@H](CCCCNC(=O)COCCOCCNC(=O)COCCOCCNC(=O)CC[C@H](NC(=O)CCCCCCCCCCCCCCCCC(=O)O)C(=O)O)NC(=O)C(C)(C)NC(=O)[C@@H](NC(=O)[C@H](CO)NC(=O)[C@H](CC(C)C)NC(=O)[C@H](CC(=O)O)NC(=O)[C@H](CO)NC(=O)[C@@H](NC(=O)[C@H](Cc1ccccc1)NC(=O)[C@@H](NC(=O)CNC(=O)[C@H](CCC(=O)O)NC(=O)C(C)(C)NC(=O)[C@@H](N)Cc1ccc(O)cc1)[C@@H](C)O)[C@@H](C)CC)[C@@H](C)CC)C(=O)N[C@@H](Cc1c[nH]cn1)C(=O)N[C@@H](CCC(N)=O)C(=O)NC(C)(C)C(=O)N[C@@H](CCC(=O)O)C(=O)N[C@@H](Cc1ccccc1)C(=O)N[C@H](C(=O)N[C@@H](CCC(=O)O)C(=O)N[C@@H](Cc1c[nH]c2ccccc12)C(=O)N[C@@H](CC(C)C)C(=O)N[C@@H](CC(C)C)C(=O)N[C@@H](C)C(=O)N[C@@H](CCC(N)=O)C(=O)NCC(=O)N1CCC[C@H]1C(=O)N[C@@H](CO)C(=O)N[C@@H](CO)C(=O)NCC(=O)N[C@@H](C)C(=O)N1CCC[C@H]1C(=O)N1CCC[C@H]1C(=O)N1CCC[C@H]1C(=O)N[C@@H](CO)C(N)=O)[C@@H](C)CC [SEQ ID NO: 21, H2N-Y-Aib-E-G-T-F-I-S-D-L-S-I-Aib-K[{AEEA}2-gGlu-C18OH]-E-R-I-H-Q-Aib-E-F-I-E-W-L-L-A-Q-G-P-S-S-G-A-P-P-P-S-NH2] (H-Y[Aib]EGTFISDLSI[Aib]K([AEEA-AEEA-γGlu-C18 diacid])ERIHQ[Aib]EFIEWLLAQGPSSGAPPPS-NH2)",no,>45 h,,10100 µg/mL,,,,>10.0 mg/mL
